The test system of test [1] is AIFM1 knockout HEK293 cells. The experiment in a line: Whole proteome analysis of AIFM1 knockout HEK293 cells. The class given is cell-based, human. Further details: dose or concentration left out as unconfirmed. The note with it: […] μM, 3 days, versus vehicle-treated AIFM1 knockout cells.
For a further test, the target named is T1, ADAL (Homo sapiens, UniProt Q6DHV7).
T1 construct: endogenous in cells; host or cells: HEK293
T1 sequence (Q6DHV7 1-355): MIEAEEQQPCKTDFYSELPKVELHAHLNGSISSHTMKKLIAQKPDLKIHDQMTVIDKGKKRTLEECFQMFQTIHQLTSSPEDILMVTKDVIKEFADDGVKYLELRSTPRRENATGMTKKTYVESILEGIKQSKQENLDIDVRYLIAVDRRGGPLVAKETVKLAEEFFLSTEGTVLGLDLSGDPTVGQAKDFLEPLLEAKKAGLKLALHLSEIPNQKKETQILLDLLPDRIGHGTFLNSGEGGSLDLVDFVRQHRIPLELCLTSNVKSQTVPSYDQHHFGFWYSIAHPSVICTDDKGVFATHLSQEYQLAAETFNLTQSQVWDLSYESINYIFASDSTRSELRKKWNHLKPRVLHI
Kind of test: Thermal protein profiling (TPP) in intact HEK293 cells. The test is classed as cell-based. Particulars: 1 h. The method, then:
(§1) incubated in a thermoshaker (600 rpm, 16 h, 37 °C). The digest was stopped by adding 10 μL formic
(§2) acid (FA) and vortexing followed by centrifugation (12,000 ×g, 3 min, room temperature). 50 mg
(§3) SepPak C18 columns (Waters, Milford, USA, Cat# WAT054960) were equilibrated by gravity flow two
(§4) times with 1 mL acetonitrile and three times with 1 mL aqueous 0.1% trifluoroacetic acid (TFA) solution.
(§5) Subsequently, the samples were loaded by gravity flow, washed three times with 1 mL aqueous 0.1%
(§6) TFA solution and once with 0.5 mL aqueous 0.5% formic acid (F A) solution. Elution of peptides into
(§7) new 2.0 mL Protein LoBind Eppendorf tubes was performed by two times addition of 250 μL elution
(§8) buffer (80% acetonitrile, 0.5% FA) by gravity flow followed by 250 μL elution buffer by vacuum flow
(§9) until all liquid was eluted from the column. The eluates were lyophilized. Before MS measurement the
(§10) (brief centrifugation after each step).
(§11) Thermal protein profiling (TPP)
(§12) The experiment was performed similarly to TPP-TR experiments described by Franken et al. with minor
(§13) modifications.5 HEK293 cells were grown in 8 T175 flasks to approx. 80-90% confluency. Per replicate
(§14) volume of 0.1 N HCl as vehicle control. Per condition two replicates were used, leading to a total of 8
(§15) T175 flasks. The cells were washed with PBS, detached with accutase, the two flask per replicate
(§16) condition combined and the cells pelletized (500 ×g, 3 min, r.t.). The medium was removed and each
(§17) pellet (Cipro #1, Cipro #2, Ctrl. #1, Ctrl #2) washed twice with cold PBS. Each pellet was resuspended
(§18) depending on the sample. The cell suspension of each sample was distributed into 10 PCR tubes
(§19) (100 µL per tube), resulting in 10 stripes á 4 tubes (2×2 conditions, 10 temperature points). The PCR
(§20) tubes were subjected to the temperature gradient using a PCR cycler.
(§21) limitations, two separate programs had to be run to cover the desired temperature range (see
(§22) Table S4). The PCR tubes were heat-treated according to the two programs for 3 min and directly snap
(§23) frozen in liquid nitrogen.
(§24) manufacturer instructions.

The target of a further test is T2, SMG7 (Homo sapiens, UniProt Q92540).
T2 construct: endogenous in cells; host or cells: HEK293
T2 sequence (Q92540 1-1137): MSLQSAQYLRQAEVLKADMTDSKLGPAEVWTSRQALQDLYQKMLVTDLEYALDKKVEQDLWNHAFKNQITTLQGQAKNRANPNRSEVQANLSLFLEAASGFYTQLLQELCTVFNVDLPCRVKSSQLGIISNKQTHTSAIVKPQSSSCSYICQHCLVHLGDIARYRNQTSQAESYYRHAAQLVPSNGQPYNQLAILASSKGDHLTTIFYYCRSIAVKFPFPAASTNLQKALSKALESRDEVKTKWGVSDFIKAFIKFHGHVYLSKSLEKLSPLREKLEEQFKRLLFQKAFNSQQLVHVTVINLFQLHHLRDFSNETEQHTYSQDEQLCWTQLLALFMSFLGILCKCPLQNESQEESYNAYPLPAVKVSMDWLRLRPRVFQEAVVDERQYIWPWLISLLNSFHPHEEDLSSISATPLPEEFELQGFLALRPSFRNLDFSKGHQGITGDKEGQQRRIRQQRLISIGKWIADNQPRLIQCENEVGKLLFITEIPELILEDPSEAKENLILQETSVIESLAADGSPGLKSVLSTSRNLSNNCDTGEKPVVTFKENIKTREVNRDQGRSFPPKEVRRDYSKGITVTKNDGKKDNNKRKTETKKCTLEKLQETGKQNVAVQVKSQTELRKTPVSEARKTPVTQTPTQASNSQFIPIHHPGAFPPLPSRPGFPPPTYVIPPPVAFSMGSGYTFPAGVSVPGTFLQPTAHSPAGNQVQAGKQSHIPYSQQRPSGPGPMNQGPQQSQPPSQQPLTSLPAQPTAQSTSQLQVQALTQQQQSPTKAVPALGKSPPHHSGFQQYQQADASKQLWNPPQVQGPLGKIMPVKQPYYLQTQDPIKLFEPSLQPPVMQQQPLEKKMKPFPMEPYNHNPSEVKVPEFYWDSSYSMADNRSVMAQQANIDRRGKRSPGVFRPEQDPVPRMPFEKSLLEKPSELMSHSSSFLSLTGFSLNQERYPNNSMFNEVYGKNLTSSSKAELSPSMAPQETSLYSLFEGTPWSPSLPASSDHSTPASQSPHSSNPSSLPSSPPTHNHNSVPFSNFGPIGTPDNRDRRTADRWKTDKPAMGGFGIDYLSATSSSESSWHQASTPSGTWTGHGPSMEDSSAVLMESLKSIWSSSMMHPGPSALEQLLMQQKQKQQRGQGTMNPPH
The description is as above. The note with it: 1 h. The class given is cell-based. Here is the method:
as §1, §2, §3, §4, §5, §6, §7, §8, §9, §10, §11, §12, §13, §14, §15, §16, §17, §18, §19, §20, §21, §22, §23, §24

For the next test, the system named is HEK‐293 cells. Kind of test: Whole proteome analysis (LC-MS/MS, LFQ) of treated HEK-293 cells. Further details: regulation of ETC complex I and IV subunits: dose or concentration left out as unconfirmed. The note with it: […] μM, 3 h to 14 days, versus control.

Each structure is given as a SMILES string. Like-named read-outs stand apart in the source and are kept apart here.

The record followed here is PMC12036814 (Angewandte Chemie (International Ed. in English), 2025).

A word on the ΔTm: it is the change in melting temperature against a reference sample.

For the compound `O=C(O)c1cn(C2CC2)c2cc(N3CCNCC3)c(F)cc2c1=O` [Ciprofloxacin], the “regulation of ETC subunits in AIFM1 knockout cells” value in test [1] is on record as “only minor additional alterations of ETC subunits”. In addition, the ΔTm at 70 µM at ADAL (read-out: ΔTm Rep. 1) was 5.91 °C; at ADAL (read-out: ΔTm Rep. 2) it was 6.21 °C; on SMG7 (read-out: ΔTm Rep. 1) it was 1.67 °C; on SMG7 (read-out: ΔTm Rep. 2), 3.28 °C. In the test on HEK‐293 cells, the “regulation of ETC complex I and IV subunits” value was “pronounced and time‐dependent down‐regulation of both complexes”.
